Laboratory results reported in PubChem BioAssay (NCI).
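Briefly, cells in 96-well plates were exposed to five compound concentrations for 48 h, and endpoints were estimated by linear interpolation. Here, GI50 denotes the concentration required for 50% inhibition of growth. TGI denotes the concentration required for complete inhibition of growth.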

Key:
Test in all cases: growth of human tumour cells (NCI), 48 h
[1] = system: 786-0 renal
[2] = system: A498 renal
[3] = system: A549 NSCLC
[4] = system: ACHN renal
[5] = system: BT-549 breast
[6] = system: CAKI-1 renal
[7] = system: CCRF-CEM leukemia
[8] = system: COLO 205 colon
[9] = system: DU-145 prostate
[10] = system: HCC-2998 colon
[11] = system: HCT-116 colon
[12] = system: HCT-15 colon
[13] = system: HL-60(TB) leukemia
[14] = system: HOP-62 NSCLC
[15] = system: HOP-92 NSCLC
[16] = system: HS 578T breast
[17] = system: HT29 colon
[18] = system: IGROV1 ovarian
[19] = system: K-562 leukemia
[20] = system: KM12 colon
[21] = system: LOX IMVI melanoma
[22] = system: M14 melanoma
[23] = system: MALME-3M melanoma
[24] = system: MCF7 breast
[25] = system: MDA-MB-231 breast
[26] = system: MDA-MB-435
[27] = system: MOLT-4 leukemia
[28] = system: NCI-H226 lung
[29] = system: NCI-H23 lung
[30] = system: NCI-H460 lung
[31] = system: NCI-H522 lung
[32] = system: NCI/ADR-RES ovarian
[33] = system: OVCAR-3 ovarian
[34] = system: OVCAR-4 ovarian
[35] = system: OVCAR-5 ovarian
[36] = system: OVCAR-8 ovarian
[37] = system: PC-3 prostate
[38] = system: RPMI-8226 leukemia
[39] = system: RXF 393 renal
[40] = system: SF-268 CNS
[41] = system: SF-295 CNS
[42] = system: SF-539 CNS
[43] = system: SK-MEL-2 melanoma
[44] = system: SK-MEL-28 melanoma
[45] = system: SK-MEL-5 melanoma
[46] = system: SK-OV-3 ovarian
[47] = system: SN12C renal
[48] = system: SNB-19 CNS
[49] = system: SNB-75 CNS
[50] = system: SR leukemia
[51] = system: SW-620 colon
[52] = system: T-47D breast
[53] = system: TK-10 renal
[54] = system: U251 CNS
[55] = system: UACC-257 melanoma
[56] = system: UACC-62 melanoma
[57] = system: UO-31 renal

In the case of `Cn1cc(C2=C(c3cccc(NCC(O)CO)c3)C(=O)NC2=O)c2cc(Cl)ccc21` (centres undefined), the GI50 [1] is reported as 4.31 µM, the TGI [1] is reported as 16.5 µM and the GI50 [2] is reported as 0.0817 µM. The TGI [2] was 4.43 µM, the GI50 [3] was 4.74 µM and the TGI [3] was 17.6 µM. The GI50 [4] was 3.53 µM, the TGI [4] was > 19.6 µM and the GI50 [5] was 3.82 µM. It also gave a TGI [5] of 9.3 µM, a GI50 [6] of 2.56 µM and a TGI [6] of 13.2 µM. The GI50 [7] was 3.92 µM, the TGI [7] was > 21.8 µM and the GI50 [8] was 2.74 µM. The TGI [8] was 6.17 µM, the GI50 [9] was 5.58 µM and the TGI [9] was > 19.3 µM. The GI50 [10] was 6.56 µM, the TGI [10] was 17.9 µM and the GI50 [11] was 2.4 µM. For the same molecule, the TGI [11] was > 25 µM, the GI50 [12] was 5.97 µM and the TGI [12] was > 25 µM. It also gave a GI50 [13] of 6.9 µM, a TGI [13] of 17.1 µM and a GI50 [14] of 4.9 µM. It also gave a TGI [14] of 18 µM, a GI50 [15] of 8.16 µM and a TGI [15] of 14.1 µM. It also gave a GI50 [16] of 0.214 µM, a TGI [16] of 5.77 µM and a GI50 [17] of 2.78 µM. The TGI [17] was 11.8 µM, the GI50 [18] was 5.62 µM and the TGI [18] was 15.1 µM. For the same molecule, the GI50 [19] was 2.19 µM, the TGI [19] was > 25 µM and the GI50 [20] was 2.45 µM. For the same molecule, the TGI [20] was 9.5 µM, the GI50 [21] was 3.05 µM and the TGI [21] was 15.1 µM. The GI50 [22] was 6.59 µM, the TGI [22] was 18.4 µM and the GI50 [23] was 7.84 µM. It also gave a TGI [23] of 14.8 µM, a GI50 [24] of 0.356 µM and a TGI [24] of 12.6 µM. The GI50 [25] was 5.94 µM, the TGI [25] was 15.5 µM and the GI50 [26] was 5.9 µM. The TGI [26] was > 20.6 µM, the GI50 [27] was 4.2 µM and the TGI [27] was 18 µM. For the same molecule, the GI50 [28] was 3.34 µM, the TGI [28] was 11.9 µM and the GI50 [29] was 4.64 µM. For the same molecule, the TGI [29] was 13.3 µM, the GI50 [30] was 5.45 µM and the TGI [30] was > 25 µM. The GI50 [31] was 2.45 µM, the TGI [31] was 11.4 µM and the GI50 [32] was 12.5 µM. The TGI [32] was > 25 µM, the GI50 [33] was 1.06 µM and the TGI [33] was 7.78 µM. It also gave a GI50 [34] of 1.87 µM, a TGI [34] of 11.6 µM and a GI50 [35] of 9.63 µM. For the same molecule, the TGI [35] was > 20.9 µM, the GI50 [36] was 5.08 µM and the TGI [36] was 17.4 µM. The GI50 [37] was 2.88 µM, the TGI [37] was 12.9 µM and the GI50 [38] was 5.56 µM. For the same molecule, the TGI [38] was 13.9 µM, the GI50 [39] was 2.82 µM and the TGI [39] was 7.18 µM. The GI50 [40] was 4.46 µM, the TGI [40] was 10.5 µM and the GI50 [41] was 0.237 µM. It also gave a TGI [41] of 8.94 µM, a GI50 [42] of 1.78 µM and a TGI [42] of 6.9 µM. The GI50 [43] was 3.58 µM, the TGI [43] was 10 µM and the GI50 [44] was 5.68 µM. It also gave a TGI [44] of 16.1 µM, a GI50 [45] of 3.32 µM and a TGI [45] of 7.14 µM. For the same molecule, the GI50 [46] was 4.78 µM, the TGI [46] was > 23 µM and the GI50 [47] was 4.62 µM. The TGI [47] was 16.5 µM, the GI50 [48] was 7.28 µM and the TGI [48] was 19.6 µM. For the same molecule, the GI50 [49] was 3.45 µM, the TGI [49] was 9.55 µM and the GI50 [50] was 3.03 µM. For the same molecule, the TGI [50] was > 25 µM, the GI50 [51] was 4.26 µM and the TGI [51] was 15.7 µM. The GI50 [52] was 4.29 µM, the TGI [52] was 15 µM and the GI50 [53] was 5.67 µM. It also gave a TGI [53] of 16.8 µM, a GI50 [54] of 2.33 µM and a TGI [54] of 13.7 µM. It also gave a GI50 [55] of 5.51 µM, a TGI [55] of 15.4 µM and a GI50 [56] of 4.66 µM. It also gave a TGI [56] of 11.6 µM, a GI50 [57] of 5.99 µM and a TGI [57] of 17.6 µM.
